According to patent US7687465B2, “Therapeutic cancer vaccine” (Kraeftens Bekaempelse, priority 2003, dated 2010):

Biological target: T1, HLA-A2 (Homo sapiens, UniProt P04439, D140Y/D185E/D98H/E176V/E277Q/G131W/G231S/I119V/I121R/I166T/I218V/L300P/L318F/N151K/N90K/P208A/P217A/Q86G/Q94H/R138H/R169H/T345S)
T1 construct: stabilization of the class 1 molecule after loading of peptide to the peptide transporter deficient cell line T2; endogenous in cells; host or cells: T2 (TAP-deficient human cell line), metabolically labelled with [35S]-methionine and lysed
Test: Assembly assay for peptide binding to class I MHC molecules
Settings: concentration of the peptide required for half maximal binding to HLA-A2; read-out: C50
Procedure: Assembly assays for binding of the synthetic peptides to class I MHC molecules metabolically labeled with [^35S]-methionine can be carried out as described below. It will be appreciated by the person skilled in the art that the protocol may be adopted for any peptide and any class I MHC molecule.
Briefly, TAP deficient cells were metabolically labeled with [^35S]-methionine (Amersham, Freiburg, Germany). The cells were lyzed in 0.5 ml lysis buffer (150 mM NaCl, 50 mM TrisHCl, 0.5% NP-40 (Fluka, Buchs, Switzerland), 5 mM EDTA, pH 7.5) with 0.5% Mega-9 (Sigma, St. Louis, USA) in the presence of protease inhibitors (2 mM PMSF, 5 mM iodoacetamide, 2 μg/ml pepstatin, 2 μg/ml leupeptin) with or without synthetic peptide (for a list of positive control peptides, see Table 2).
After 20 min of incubation, the cell nuclei were removed by centrifugation (5 min, 10,000 g) and 50 μl (10% v/v) freshly washed Staphylococcus aureus organisms (Pansorbin, Calbiochem, Nottingham, UK). The next day Pansorbin was removed by centrifugation (12 min, 16,000 g) and the appropriate monoclonal antibody was added at a final concentration of 10 μg/ml, incubated for 90 min, followed by addition of protein A-Sepharose (75 μl, 10% v/v) and incubation for 1 h. The beads were washed 4 times and stored at −20° C. until analysis by electrophoresis.
In the case of an assembly assay with the HLA class I-specific conformation-dependent monoclonal antibody W6/32, samples were eluted in reducing buffer (9.5 M urea, 2% NP-40, 5% 2-mercaptoethanol, 2% Ampholines, pH range 3.5-9.5 (Pharmacia Biotech, Uppsala, Sweden)) and focused for 16 h at 880 V on 5.5% polyacrylamide isoelectric focusing (IEF) gels^20,39.
Samples from assembly assays with allele-specific antibodies were eluted by boiling (5 min) in SDS reducing buffer (50 mM TrisHCl pH 6.8, 2% SDS, 5% 2-mercaptoethanol, 10% glycerol, 2.5% bromophenol blue) and electrophorezed on 12% SDS-PAGE gels (1 h at 200 V). All gels were fixed in 10% acetic acid with 5% methanol and dried onto 3 MM paper (Whatman, Maidstone, UK). MHC heavy chain bands were quantified using the Imagequant Phosphorimager program (Molecular Dynamics, Sunnyvale, Calif., USA). The intensity of the band is directly related to the amount of peptide-bound class I MHC complex recovered during the assay. C50 value (μM) as the concentration of the peptide required for half maximal binding to MHC may thus be determined. The binding affinities of the analysed peptides are determined according to their efficiency of stabilising the HLA class I molecules. The binding affinity is represented as the peptide concentration required to reach half-maximal stabilistation of appropriate HLA-molecule.
Assembly assays for binding of the synthetic peptides to class I MHC molecules metabolically labeled with [^35S]-methionine were carried out as described^15,16. The assembly assay is based on stabilization of the class 1 molecule after loading of peptide to the peptide transporter deficient cell line T2. Subsequently correctly folded stable MHC heavy chains are immunoprecipitated using conformation-dependent antibodies. After IEF electrophoresis, gels were exposed to phosphorImager screens, and peptide binding was quantitated using the Imagequant PhosphorImager program (Molecular Dynamics, Sunnyvale, Calif.).

SMILES: CC(C)C[C@H](NC(=O)[C@@H](N)CCCNC(=N)N)C(=O)N[C@@H](CCC(N)=O)C(=O)N[C@@H](CCC(=O)O)C(=O)N[C@@H](CCC(=O)O)C(=O)N[C@@H](CCCNC(=N)N)C(=O)N[C@H](C(=O)N[C@@H](CS)C(=O)N[C@@H](CCCCN)C(=O)N[C@H](C(=O)O)C(C)C)[C@@H](C)O [ML-IAP245]
- EC50: 1 µM
